The values that follow come from US11939331B2, “Tricyclic heterocycles as FGFR inhibitors” (Incyte Corporation, priority 2021, dated 2024).

Some results are limits rather than exact numbers.

The target in this experiment is wild-type un-phosphorylated FGFR3 protein (Homo sapiens, UniProt P22607). Put plainly: FGFR Enzymatic Assay (FRET peptide phosphorylation).
wild-type un-phosphorylated FGFR3 protein, sequence (P22607 23-806): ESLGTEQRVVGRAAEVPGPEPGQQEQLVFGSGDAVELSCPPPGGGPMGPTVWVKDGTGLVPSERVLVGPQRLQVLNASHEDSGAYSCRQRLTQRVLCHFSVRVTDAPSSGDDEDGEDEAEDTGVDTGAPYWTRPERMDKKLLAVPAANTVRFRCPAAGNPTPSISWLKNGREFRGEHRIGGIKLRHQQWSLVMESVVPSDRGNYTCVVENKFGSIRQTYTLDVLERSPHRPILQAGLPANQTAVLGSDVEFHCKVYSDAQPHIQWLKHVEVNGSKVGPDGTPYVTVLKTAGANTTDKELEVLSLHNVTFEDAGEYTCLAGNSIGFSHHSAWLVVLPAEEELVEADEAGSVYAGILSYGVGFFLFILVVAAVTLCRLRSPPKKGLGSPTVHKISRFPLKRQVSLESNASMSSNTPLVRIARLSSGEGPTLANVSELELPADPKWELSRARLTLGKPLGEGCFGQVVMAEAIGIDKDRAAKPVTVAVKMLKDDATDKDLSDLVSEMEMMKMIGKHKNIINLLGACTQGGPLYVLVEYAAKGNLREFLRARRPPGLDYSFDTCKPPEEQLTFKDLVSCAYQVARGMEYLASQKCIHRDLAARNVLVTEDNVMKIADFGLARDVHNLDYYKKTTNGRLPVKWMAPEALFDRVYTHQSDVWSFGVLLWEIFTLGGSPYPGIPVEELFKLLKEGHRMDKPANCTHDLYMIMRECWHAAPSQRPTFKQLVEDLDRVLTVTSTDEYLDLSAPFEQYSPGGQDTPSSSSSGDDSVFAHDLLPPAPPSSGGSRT
Method: The inhibitor potency of the exemplified compounds was determined in an enzyme discontinuous assay that measures peptide phosphorylation using FRET measurements to detect product formation. Inhibitors were serially diluted in DMSO and a volume of 0.2 μL was transferred to the wells of a 384-well plate. A 5 μL/well volume of enzyme isoforms of FGFR (-1, -2, -3 wild-type and mutant isoforms, -4) including phosphorylated and un-phosphorylated proteins diluted in assay buffer (50 mM HEPES, 10 mM MgCl2, 1 mM EGTA, 0.01% Tween-20, 5 mM DTT, pH 7.5) was added to the plate and pre-incubated with inhibitor for 5 to 15 minutes at ambient temperature. Appropriate controls (enzyme blank and enzyme with no inhibitor) were included on the plate. The reaction was initiated by the addition of a 5 μL/well volume containing both biotinylated [sequence] peptide substrate (SEQ ID NO: 1) and ATP in assay buffer. The 10 μL/well reaction concentration of the peptide substrate was 500 nM whereas the ATP concentration was maintained near or below the ATP Km. The ATP Km values were pre-determined in a separate series of experiments. The reaction plate was incubated at 25° C. for 1 hr and the reactions were ended with the addition of 5 μL/well of quench solution (50 mM Tris, 150 mM NaCl, 0.5 mg/mL BSA, pH 7.8; 45 mM EDTA, 600 nM staurosporin, with Perkin Elmer Lance Reagents at 3.75 nM Eu-antibody PY20 and 180 nM APC-Streptavidin). The plate was allowed to equilibrate for ˜10 minutes at ambient temperature before scanning on a PheraStar plate reader (BMG Labtech) instrument.
Either GraphPad prism or XLfit was used to analyze the data. The IC50 values were derived by fitting the data to a four parameter logistic equation producing a sigmoidal dose-response curve with a variable Hill coefficient. Prism equation: Y=Bottom+(Top−Bottom)/(1+10^((Log IC50−X)*Hill slope)); XLfit equation: Y=(A+((B−A)/(1+((X/C)^D)))) where X is the logarithm of inhibitor concentration and Y is the response.
`NC(=O)c1c(-c2c(Cl)cccc2Cl)nc2c3cc(-c4cnn(CCCO)c4)cnc3ccn12` [Example 47, 2-(2,6-Dichlorophenyl)-9-(1-(3-hydroxypropyl)-1H-pyrazol-4-yl)imidazo[2,1-f][1,6]naphthyridine-3-carboxamide] showed an IC50 of less than 100 pM. Compound `CC(C)(CO)n1cc(-c2cnc3ccn4c(C(N)=O)c(-c5c(Cl)cccc5Cl)nc4c3c2)cn1` [Example 30, 2-(2,6-Dichlorophenyl)-9-(1-(1-hydroxy-2-methylpropan-2-yl)-1H-pyrazol-4-yl)imidazo[2,1-f][1,6]naphthyridine-3-carboxamide] showed a concentration for half-maximal inhibition (IC50) of less than 100 pM. With `NC(=O)c1c(-c2c(Cl)cccc2Cl)nc2c3cc(-c4cnn(CCO)c4)cnc3ccn12` [Example 1, 2-(2,6-Dichlorophenyl)-9-(1-(2-hydroxyethyl)-1H-pyrazol-4-yl)imidazo[2,1-f][1,6]naphthyridine-3-carboxamide], the IC50 was less than 100 pM. For `CNc1ncc(-c2cnc3ccn4c(C(N)=O)c(-c5c(Cl)cccc5Cl)nc4c3c2)cn1` [Example 43, 2-(2,6-Dichlorophenyl)-9-(2-(methylamino)pyrimidin-5-yl)imidazo[2,1-f][1,6]naphthyridine-3-carboxamide], the IC50 was in the range of 100 to 1000 pM. For `NC(=O)c1c(-c2c(Cl)cccc2Cl)nc2c3cc(-c4cnn(C5CC5)c4)cnc3ccn12` [Example 32, 9-(1-Cyclopropyl-1H-pyrazol-4-yl)-2-(2,6-dichlorophenyl)imidazo[2,1-f][1,6]naphthyridine-3-carboxamide], the IC50 is less than 100 pM. The figure for `CN1CCC(n2cc(-c3cnc4ccn5c(C(N)=O)c(-c6c(Cl)cccc6Cl)nc5c4c3)cn2)CC1` [Example 29, 2-(2,6-Dichlorophenyl)-9-(1-(1-methylpiperidin-4-yl)-1H-pyrazol-4-yl)imidazo[2,1-f][1,6]naphthyridine-3-carboxamide] is less than 100 pM. Compound `NC(=O)c1c(-c2c(Cl)cccc2Cl)nc2c3cc(-c4cnn(C5CCOC5)c4)cnc3ccn12` (centres unmarked) [Example 44, 2-(2,6-Dichlorophenyl)-9-(1-(tetrahydrofuran-3-yl)-1H-pyrazol-4-yl)imidazo[2,1-f][1,6]naphthyridine-3-carboxamide] registered a half-inhibitory concentration (IC50) of less than 100 pM. The figure for `NC(=O)c1c(-c2c(Cl)cccc2Cl)nc2c3cc(-c4cnn(CC(F)(F)F)c4)cnc3ccn12` [Example 33, 2-(2,6-Dichlorophenyl)-9-(1-(2,2,2-trifluoroethyl)-1H-pyrazol-4-yl)imidazo[2,1-f][1,6]naphthyridine-3-carboxamide] is less than 100 pM. Under `NC(=O)c1c(-c2c(Cl)cccc2Cl)nc2c3cc(-c4ccc(CC(F)(F)F)nc4)cnc3ccn12` [Example 51, 2-(2,6-Dichlorophenyl)-9-(6-(2,2,2-trifluoroethyl)pyridin-3-yl)imidazo[2,1-f][1,6]naphthyridine-3-carboxamide] stands 100 to 1000 pM. `N#Cc1cncc(Cn2cc(-c3cnc4ccn5c(C(N)=O)c(-c6c(Cl)cccc6Cl)nc5c4c3)cn2)c1` [Example 9, 9-(1-((5-Cyanopyridin-3-yl)methyl)-1H-pyrazol-4-yl)-2-(2,6-dichlorophenyl)imidazo[2,1-f][1,6]naphthyridine-3-carboxamide] had a half-inhibitory concentration (IC50) of less than 100 pM. `CCC(O)Cn1cc(-c2cnc3ccn4c(C(N)=O)c(-c5c(Cl)cccc5Cl)nc4c3c2)cn1` (centres unmarked) [Example 7, 2-(2,6-Dichlorophenyl)-9-(1-(2-hydroxybutyl)-1H-pyrazol-4-yl)imidazo[2,1-f][1,6]naphthyridine-3-carboxamide] showed a 50% inhibitory concentration (IC50) of 100 to 1000 pM. Consider `NC(=O)c1c(-c2c(Cl)cccc2Cl)nc2c3cc(C4=CCC(O)CC4)cnc3ccn12` (centres unmarked) [Example 53, 2-(2,6-Dichlorophenyl)-9-(4-hydroxycyclohex-1-en-1-yl)imidazo[2,1-f][1,6]naphthyridine-3-carboxamide], for which the IC50 was less than 100 pM. Take `NC(=O)c1c(-c2c(Cl)cccc2Cl)nc2c3cc(-c4ccc(C(=O)N5CCOCC5)cc4)cnc3ccn12` [Example 4, 2-(2,6-Dichlorophenyl)-9-(4-(morpholine-4-carbonyl)phenyl)imidazo[2,1-f][1,6]naphthyridine-3-carboxamide]: the half-inhibitory concentration (IC50) was less than 100 pM. The compound `CC(CC#N)n1cc(-c2cnc3ccn4c(C(N)=O)c(-c5c(Cl)cccc5Cl)nc4c3c2)cn1` (centres unmarked) [Example 6, 9-(1-(1-Cyanopropan-2-yl)-1H-pyrazol-4-yl)-2-(2,6-dichlorophenyl)imidazo[2,1-f][1,6]naphthyridine-3-carboxamide] gave an IC50 of less than 100 pM.

`Cc1nc2c3cc(-c4cnn(C5CCOCC5)c4)cnc3ccn2c1C(N)=O` [Example 57, 2-Methyl-9-(1-(tetrahydro-2H-pyran-4-yl)-1H-pyrazol-4-yl)imidazo[2,1-f][1,6]naphthyridine-3-carboxamide]: the IC50 is 10000 to 50000 pM. As to `CC(C)(C#N)n1cc(-c2cnc3ccn4c(C(N)=O)c(-c5c(Cl)cccc5Cl)nc4c3c2)cn1` [Example 31, 9-(1-(2-Cyanopropan-2-yl)-1H-pyrazol-4-yl)-2-(2,6-dichlorophenyl)imidazo[2,1-f][1,6]naphthyridine-3-carboxamide], the half-maximal inhibitory concentration (IC50) is less than 100 pM.

On to `CN(C)CCCn1cc(-c2cnc3ccn4c(C(N)=O)c(-c5c(Cl)cccc5Cl)nc4c3c2)cn1` [Example 37, 2-(2,6-Dichlorophenyl)-9-(1-(3-(dimethylamino)propyl)-1H-pyrazol-4-yl)imidazo[2,1-f][1,6]naphthyridine-3-carboxamide], for which the IC50 was less than 100 pM.

`NC(=O)c1c(-c2c(Cl)cccc2Cl)nc2c3cc(-c4cnn(CCN5CCOCC5)c4)cnc3ccn12` [Example 45, 2-(2,6-Dichlorophenyl)-9-(1-(2-morpholinoethyl)-1H-pyrazol-4-yl)imidazo[2,1-f][1,6]naphthyridine-3-carboxamide] registered a half-maximal inhibitory concentration (IC50) of 100 to 1000 pM. Take `CC(C)(O)c1cncc(-c2cnc3ccn4c(C(N)=O)c(-c5c(Cl)cccc5Cl)nc4c3c2)c1` [Example 42, 2-(2,6-Dichlorophenyl)-9-(5-(2-hydroxypropan-2-yl)pyridin-3-yl)imidazo[2,1-f][1,6]naphthyridine-3-carboxamide]: the IC50 was in the range of 1000 to 10000 pM. `CN(C)CCn1cc(-c2cnc3ccn4c(C(N)=O)c(-c5c(Cl)cccc5Cl)nc4c3c2)cn1` [Example 34, 2-(2,6-Dichlorophenyl)-9-(1-(2-(dimethylamino)ethyl)-1H-pyrazol-4-yl)imidazo[2,1-f][1,6]naphthyridine-3-carboxamide] yielded a concentration for half-maximal inhibition (IC50) of less than 100 pM. For the compound `CC(C#N)n1cc(-c2cnc3ccn4c(C(N)=O)c(-c5c(Cl)cccc5Cl)nc4c3c2)cn1` (centres unmarked) [Example 27, 9-(1-(1-Cyanoethyl)-1H-pyrazol-4-yl)-2-(2,6-dichlorophenyl)imidazo[2,1-f][1,6]naphthyridine-3-carboxamide], the IC50 was less than 100 pM. As to `NC(=O)c1c(-c2c(Cl)cccc2Cl)nc2c3cc(-c4cnn5c4CCC5)cnc3ccn12` [Example 41, 2-(2,6-Dichlorophenyl)-9-(5,6-dihydro-4H-pyrrolo[1,2-b]pyrazol-3-yl)imidazo[2,1-f][1,6]naphthyridine-3-carboxamide], the IC50 fell in the range of 100 to 1000 pM. Under `CC(O)Cn1cc(-c2cnc3ccn4c(C(N)=O)c(-c5c(Cl)cccc5Cl)nc4c3c2)cn1` (centres unmarked) [Example 36, 2-(2,6-Dichlorophenyl)-9-(1-(2-hydroxypropyl)-1H-pyrazol-4-yl)imidazo[2,1-f][1,6]naphthyridine-3-carboxamide] stands less than 100 pM; under `N#CCn1cc(-c2cnc3ccn4c(C(N)=O)c(-c5c(Cl)cccc5Cl)nc4c3c2)cn1` [Example 23, 9-(1-(Cyanomethyl)-1H-pyrazol-4-yl)-2-(2,6-dichlorophenyl)imidazo[2,1-f][1,6]naphthyridine-3-carboxamide], less than 100 pM; under `CC(C)(O)c1cnc2ccn3c(C(N)=O)c(-c4c(Cl)cccc4Cl)nc3c2c1` [Example 55, 2-(2,6-Dichlorophenyl)-9-(2-hydroxypropan-2-yl)imidazo[2,1-f][1,6]naphthyridine-3-carboxamide], 10000 to 50000 pM. With `N#Cc1cc(Cn2cc(-c3cnc4ccn5c(C(N)=O)c(-c6c(Cl)cccc6Cl)nc5c4c3)cn2)ccn1` [Example 10, 9-(1-((2-Cyanopyridin-4-yl)methyl)-1H-pyrazol-4-yl)-2-(2,6-dichlorophenyl)imidazo[2,1-f][1,6]naphthyridine-3-carboxamide], the half-maximal inhibitory concentration (IC50) is less than 100 pM. `NC(=O)c1c(-c2c(Cl)cccc2Cl)nc2c3cc(-c4ccc(=O)[nH]c4)cnc3ccn12` [Example 39, 2-(2,6-Dichlorophenyl)-9-(6-oxo-1,6-dihydropyridin-3-yl)imidazo[2,1-f][1,6]naphthyridine-3-carboxamide] had a half-inhibitory concentration (IC50) of 100 to 1000 pM.

Take `NC(=O)Cn1cc(-c2cnc3ccn4c(C(N)=O)c(-c5c(Cl)cccc5Cl)nc4c3c2)cn1` [Example 49, 9-(1-(2-Amino-2-oxoethyl)-1H-pyrazol-4-yl)-2-(2,6-dichlorophenyl)imidazo[2,1-f][1,6]naphthyridine-3-carboxamide]: the IC50 was less than 100 pM. The compound `NC(=O)c1c(-c2c(Cl)cccc2Cl)nc2c3cc(-c4cnn(Cc5ncccn5)c4)cnc3ccn12` [Example 15, 2-(2,6-Dichlorophenyl)-9-(1-(pyrimidin-2-ylmethyl)-1H-pyrazol-4-yl)imidazo[2,1-f][1,6]naphthyridine-3-carboxamide] yielded an IC50 of less than 100 pM. Compound `CC(C)c1[nH]ncc1-c1cnc2ccn3c(C(N)=O)c(-c4c(Cl)cccc4Cl)nc3c2c1` [Example 40, 2-(2,6-Dichlorophenyl)-9-(5-isopropyl-1H-pyrazol-4-yl)imidazo[2,1-f][1,6]naphthyridine-3-carboxamide] had an IC50 of 1000 to 10000 pM.

`N#Cc1cccc(Cn2cc(-c3cnc4ccn5c(C(N)=O)c(-c6c(Cl)cccc6Cl)nc5c4c3)cn2)n1` [Example 16, 9-(1-((6-Cyanopyridin-2-yl)methyl)-1H-pyrazol-4-yl)-2-(2,6-dichlorophenyl)imidazo[2,1-f][1,6]naphthyridine-3-carboxamide] had a half-maximal inhibitory concentration (IC50) of less than 100 pM. Compound `NC(=O)c1c(-c2c(Cl)cccc2Cl)nc2c3cc(-c4cnn(C5CCOCC5)c4)cnc3ccn12` [Example 24, 2-(2,6-Dichlorophenyl)-9-(1-(tetrahydro-2H-pyran-4-yl)-1H-pyrazol-4-yl)imidazo[2,1-f][1,6]naphthyridine-3-carboxamide] returned an IC50 of 100 to 1000 pM.

As usually defined, the IC50 is the midpoint of a concentration-inhibition curve. Read a low IC50 as inhibition by little substance.
